Laboratory results: PubChem BioAssay (NCI)
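96-well plates; 48 h exposure; 5 concentrations. Endpoints by linear interpolation between flanking doses. Not reached: highest tested concentration assigned. TGI is the concentration that stops growth completely.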

Tests used:
Test in all cases: NCI anticancer screen, dose series, 48 h
[1] = test system: A549 NSCLC
[2] = test system: BT-549 breast
[3] = test system: CAKI-1 renal
[4] = test system: CCRF-CEM leukemia
[5] = test system: COLO 205 colon
[6] = test system: HCT-15 colon
[7] = test system: M14 melanoma
[8] = test system: MDA-MB-435
[9] = test system: SF-268 CNS
[10] = test system: SK-MEL-2 melanoma
[11] = test system: SK-MEL-5 melanoma
[12] = test system: SK-OV-3 ovarian
[13] = test system: SNB-19 CNS
[14] = test system: TK-10 renal

| SMILES | TGI [1] [µM] | TGI [2] [µM] | TGI [3] [µM] | TGI [4] [µM] | TGI [5] [µM] | TGI [6] [µM] | TGI [7] [µM] | TGI [8] [µM] | TGI [9] [µM] | TGI [10] [µM] | TGI [11] [µM] | TGI [12] [µM] | TGI [13] [µM] | TGI [14] [µM] |
| --- | --- | --- | --- | --- | --- | --- | --- | --- | --- | --- | --- | --- | --- | --- |
| CSC1=C(SC)SC(=C2SC3=C(SC(=C4SCCS4)S3)S2)S1 | > 100 | > 100 | > 100 | > 100 | > 100 | > 100 | > 100 | > 100 | > 100 | > 100 | > 100 | > 100 | > 100 | > 100 |
| CC1(C)OCC2OC3(c4nc(C#N)c(N)o4)OC(C)(C)OC3C2O1 (configuration not stated) | > 100 | > 100 | > 100 | > 100 | > 100 | > 100 | > 100 | > 100 | > 100 | > 100 | > 100 | > 100 | > 100 | > 100 |
| Cc1cccc(/C=N/NC(=S)NCCc2ccccn2)n1 | > 100 | > 100 | > 100 | > 72.9 | > 100 | > 100 | 33.6 | > 73.7 | > 100 | > 100 | > 100 | 43.5 | > 100 | > 100 |
| O=C1/C(=C\c2ccc([N+](=O)[O-])o2)SC2N=C(COc3ccc(Cl)cc3)NN12 (configuration not stated) | 38.4 | 21.8 | 32.9 | 5.97 | 13.3 | 4.77 | 13.2 | 16.3 | 13.6 | 37.2 | 27.1 | 38.8 | 31.1 | 31.4 |
| COC(=O)C1=C(C)NC(C)=C(C(=O)OC)C1c1ccc(/[N+]([O-])=C/c2ccccc2)cc1 | > 100 | 40.1 | 35 | 48 | 35.1 | > 100 | 35.7 | > 100 | > 100 | > 100 | > 100 | > 100 | > 100 | > 100 |
| CC1=C(Br)C(Br)=C(C)S1=O | 79.8 | 40.4 | 49.9 | 6.66 | 5.82 | > 100 | 33.8 | 30.9 | > 100 | 32.9 | 22.1 | 65.5 | 63.7 | 48.5 |
| CCN1c2nc3ccccc3nc2N(CC)c2nc3ccccc3nc21 | > 100 | > 100 | > 100 | > 100 | > 100 | > 100 | > 100 | > 100 | > 100 | > 100 | > 100 | > 100 | > 100 | > 100 |
| COc1cccc(CCn2c(N)c(-c3ccccc3)c3ccc([N+](=O)[O-])cc3c2=O)c1 | 42 | 4.3 | 16.7 | 43 | 5.93 | 27.9 | 24.3 | > 67.1 | 53.7 | 48.4 | 19.3 | 23.3 | 41 | 5.31 |
| C/C(=N\Nc1cc(CN2CCCC2)c(-c2ccc(Cl)cc2)nn1)C(=O)O | > 100 | > 100 | > 100 | > 100 | > 100 | > 100 | > 100 | > 100 | > 100 | > 100 | > 100 | > 100 | > 100 | > 100 |
| CCOC(=O)c1nc2c(Cl)c3ncccc3cc2[nH]c1=O | > 100 | 94.7 | > 100 | > 100 | > 100 | 56.5 | > 100 | > 100 | > 100 | > 100 | 22.7 | > 100 | > 100 | > 100 |
| Cc1ccc2nc(-c3ccc(N)c(I)c3)sc2c1 | 58.7 | > 100 | > 100 | 88.8 | 30.9 | 23.2 | > 100 | 79.1 | 88.7 | 40.8 | > 100 | > 100 | 86.4 | 17.7 |
| N#CSc1nc[nH]c1C(N)=O | > 100 | > 100 | > 81.6 | 14.4 | > 100 | > 100 | > 100 | > 100 | > 100 | > 100 | > 100 | > 100 | > 100 | > 100 |
| Cc1cc(C)cc(C(=N)c2ccccc2Cc2cccc3ccccc23)c1 | 42.4 | > 100 | 72.9 | 26.5 | 52.3 | 32.2 | 40.1 | 32.9 | 34.9 | > 100 | 31.9 | 41.5 | 43 | 94.6 |
